Values of other authors, collected in patent publication US8445670B2, “Combinatorial library approach to iminocyclitols with biological activity” (United Therapeutics Corporation, priority 2005, dated 2013).

Test system: bovine viral diarrhoea virus (BVDV)
Conditions: reference DNJ derivatives, values given with literature references

IC50 [µM] | SMILES
125 | CCCCN1C[C@H](O)[C@@H](O)[C@H](O)[C@H]1CO [N-n-butyl DNJ]
10 | CCCCCCCCCN1C[C@H](O)[C@@H](O)[C@H](O)[C@H]1CO [N-n-nonyl DNJ]
